From patent US4523033A, “Heart testing compound” (The United States of America as represented by the United …, priority 1983, dated 1985)
Where two headings read alike, the source gives them in different places.

How the values were obtained:
[1] = Tissue distribution of radioactivity in rats after intravenous administration; assay type: in vivo; conditions: rat; for tissue uptake at 5 min / tissue uptake at 0.5 h / tissue uptake at 1 h / tissue uptake at 2 h / tissue uptake at 6 h / tissue uptake at 24 h / tissue uptake at 120 h: iv
Protocol: In Table I, the tissue distribution of radioactivity in rats after intravenous administration of a bovine serium-albumin complex of the 15-(p-[^125 I]-iodophenyl)-6-Tellurapentadecanoic acid is summarized for various time periods from 5 minutes to 5 days.

[2] = Cumulative excretion of radioactivity in urine and feces after injection; assay type: in vivo; conditions: rat
Protocol: These studies were conducted over a five-day period, which represents a decay period of […] for 13.2-hr iodine-123. The cumulative excretion levels in urine and feces were 43.2±1.8% injected dose after two days and […] after five days. The radioactive content of the urine (20.8±2.1%) and feces 22.4±1.1%) were similar after two days, but after five days the cumulative fecal activity (41.4±4.3%) was greater than that for urine (30.5±4.0%).

[3] = cited from earlier work
[4] = after five days, % injected dose, 7200 min
[5] = after two days, % injected dose, 2880 min

O=C(O)CCCC[Te]CCCCCCCCCc1ccc([125I])cc1 [15-(p-[^125 I]iodophenyl)-6-tellurapentadecanoic acid]
Heart retention of the maximum uptake observed after 5 minutes ([1]; after 6 hours): 80%
Heart retention of the maximal value ([1]; after 24 hours): 55%
tissue uptake at 5 min ([1]; blood, 5 min, read-out: Distribution of radioactivity, Blood): 0.26 %ID/g
tissue uptake at 0.5 h ([1]; blood, 30 min, read-out: Distribution of radioactivity, Blood): 0.45 %ID/g
tissue uptake at 1 h ([1]; blood, 60 min, read-out: Distribution of radioactivity, Blood): 0.34 %ID/g
tissue uptake at 2 h ([1]; blood, 2 h, read-out: Distribution of radioactivity, Blood): 0.42 %ID/g
tissue uptake at 6 h ([1]; blood, 6 h, read-out: Distribution of radioactivity, Blood): 0.31 %ID/g
tissue uptake at 24 h ([1]; blood, 1 d, read-out: Distribution of radioactivity, Blood): 0.2 %ID/g
tissue uptake at 120 h ([1]; blood, 5 d, read-out: Distribution of radioactivity, Blood): 0.03 %ID/g
tissue uptake at 5 min ([1]; heart, 5 min, read-out: Distribution of radioactivity, Heart): 5.87 %ID/g
tissue uptake at 0.5 h ([1]; heart, 30 min, read-out: Distribution of radioactivity, Heart): 5.43 %ID/g
tissue uptake at 1 h ([1]; heart, 60 min, read-out: Distribution of radioactivity, Heart): 5.55 %ID/g
tissue uptake at 2 h ([1]; heart, 2 h, read-out: Distribution of radioactivity, Heart): 5.85 %ID/g
tissue uptake at 6 h ([1]; heart, 6 h, read-out: Distribution of radioactivity, Heart): 4.78 %ID/g
tissue uptake at 24 h ([1]; heart, 1 d, read-out: Distribution of radioactivity, Heart): 3.25 %ID/g
tissue uptake at 120 h ([1]; heart, 5 d, read-out: Distribution of radioactivity, Heart): 0.94 %ID/g
Blood clearance (in words) ([1]; i.v.): rapid blood clearance
Blood levels (in words) ([1]; i.v.): low blood levels
Deiodination (in words) ([1]; i.v.): minimal deiodination
Myocardial uptake (in words) ([1]; i.v.): rapid and pronounced myocardial uptake
Radioactivity accumulated in thyroid tissue (in words) ([1]; i.v.): Only marginal radioactivity accumulated in the thyroid tissue
Retention of radioactivity in the heart (in words) ([1]; i.v.): Prolonged retention of radioactivity
Distribution of radioactivity, Blood ([1]; i.v., 5 min): 2.00 % injected dose/organ
Distribution of radioactivity, Heart ([1]; i.v., 5 min): 2.98 % injected dose/organ
Distribution of radioactivity, Kidneys ([1]; i.v., 5 min): 1.25 % injected dose/organ
Distribution of radioactivity, Liver ([1]; i.v., 5 min): 50.94 % injected dose/organ
Distribution of radioactivity, Lungs ([1]; i.v., 5 min): 0.97 % injected dose/organ
Distribution of radioactivity, Thyroid ([1]; i.v., 5 min): 0.02 % injected dose/organ
Distribution of radioactivity, Blood ([1]; i.v., 30 min): 3.41 % injected dose/organ
Distribution of radioactivity, Heart ([1]; i.v., 30 min): 2.61 % injected dose/organ
Distribution of radioactivity, Kidneys ([1]; i.v., 30 min): 1.52 % injected dose/organ
Distribution of radioactivity, Liver ([1]; i.v., 30 min): 39.28 % injected dose/organ
Distribution of radioactivity, Lungs ([1]; i.v., 30 min): 1.05 % injected dose/organ
Distribution of radioactivity, Thyroid ([1]; i.v., 30 min): 0.02 % injected dose/organ
Distribution of radioactivity, Blood ([1]; i.v., 60 min): 2.66 % injected dose/organ
Distribution of radioactivity, Heart ([1]; i.v., 60 min): 2.87 % injected dose/organ
Distribution of radioactivity, Kidneys ([1]; i.v., 60 min): 1.73 % injected dose/organ
Distribution of radioactivity, Liver ([1]; i.v., 60 min): 39.03 % injected dose/organ
Distribution of radioactivity, Lungs ([1]; i.v., 60 min): 1.01 % injected dose/organ
Distribution of radioactivity, Thyroid ([1]; i.v., 60 min): 0.02 % injected dose/organ
Distribution of radioactivity, Blood ([1]; i.v., 2 h): 3.01 % injected dose/organ
Distribution of radioactivity, Heart ([1]; i.v., 2 h): 2.87 % injected dose/organ
Distribution of radioactivity, Kidneys ([1]; i.v., 2 h): 1.53 % injected dose/organ
Distribution of radioactivity, Liver ([1]; i.v., 2 h): 44.03 % injected dose/organ
Distribution of radioactivity, Lungs ([1]; i.v., 2 h): 1.29 % injected dose/organ
Distribution of radioactivity, Thyroid ([1]; i.v., 2 h): 0.04 % injected dose/organ
Distribution of radioactivity, Blood ([1]; i.v., 6 h): 2.26 % injected dose/organ
Distribution of radioactivity, Heart ([1]; i.v., 6 h): 2.32 % injected dose/organ
Distribution of radioactivity, Kidneys ([1]; i.v., 6 h): 1.25 % injected dose/organ
Distribution of radioactivity, Liver ([1]; i.v., 6 h): 46.39 % injected dose/organ
Distribution of radioactivity, Lungs ([1]; i.v., 6 h): 0.85 % injected dose/organ
Distribution of radioactivity, Thyroid ([1]; i.v., 6 h): 0.07 % injected dose/organ
Distribution of radioactivity, Blood ([1]; i.v., 1 d): 1.50 % injected dose/organ
Distribution of radioactivity, Heart ([1]; i.v., 1 d): 1.60 % injected dose/organ
Distribution of radioactivity, Kidneys ([1]; i.v., 1 d): 0.81 % injected dose/organ
Distribution of radioactivity, Liver ([1]; i.v., 1 d): 34.28 % injected dose/organ
Distribution of radioactivity, Lungs ([1]; i.v., 1 d): 0.70 % injected dose/organ
Distribution of radioactivity, Thyroid ([1]; i.v., 1 d): 0.26 % injected dose/organ
Distribution of radioactivity, Blood ([1]; i.v., 5 d): 0.23 % injected dose/organ
Distribution of radioactivity, Heart ([1]; i.v., 5 d): 0.45 % injected dose/organ
Distribution of radioactivity, Kidneys ([1]; i.v., 5 d): 0.23 % injected dose/organ
Distribution of radioactivity, Liver ([1]; i.v., 5 d): 6.46 % injected dose/organ
Distribution of radioactivity, Lungs ([1]; i.v., 5 d): 0.24 % injected dose/organ
Distribution of radioactivity, Thyroid ([1]; i.v., 5 d): 0.32 % injected dose/organ
tissue uptake at 5 min ([1]; kidneys, 5 min, read-out: Distribution of radioactivity, Kidneys): 1.02 %ID/g
tissue uptake at 0.5 h ([1]; kidneys, 30 min, read-out: Distribution of radioactivity, Kidneys): 1.25 %ID/g
tissue uptake at 1 h ([1]; kidneys, 60 min, read-out: Distribution of radioactivity, Kidneys): 1.41 %ID/g
tissue uptake at 2 h ([1]; kidneys, 2 h, read-out: Distribution of radioactivity, Kidneys): 1.37 %ID/g
tissue uptake at 6 h ([1]; kidneys, 6 h, read-out: Distribution of radioactivity, Kidneys): 1.12 %ID/g
tissue uptake at 24 h ([1]; kidneys, 1 d, read-out: Distribution of radioactivity, Kidneys): 0.7 %ID/g
tissue uptake at 120 h ([1]; kidneys, 5 d, read-out: Distribution of radioactivity, Kidneys): 0.2 %ID/g
tissue uptake at 5 min ([1]; liver, 5 min, read-out: Distribution of radioactivity, Liver): 9.57 %ID/g
tissue uptake at 0.5 h ([1]; liver, 30 min, read-out: Distribution of radioactivity, Liver): 7.78 %ID/g
tissue uptake at 1 h ([1]; liver, 60 min, read-out: Distribution of radioactivity, Liver): 7.69 %ID/g
tissue uptake at 2 h ([1]; liver, 2 h, read-out: Distribution of radioactivity, Liver): 8.38 %ID/g
tissue uptake at 6 h ([1]; liver, 6 h, read-out: Distribution of radioactivity, Liver): 8.37 %ID/g
tissue uptake at 24 h ([1]; liver, 1 d, read-out: Distribution of radioactivity, Liver): 6.24 %ID/g
tissue uptake at 120 h ([1]; liver, 5 d, read-out: Distribution of radioactivity, Liver): 1.28 %ID/g
tissue uptake at 5 min ([1]; lungs, 5 min, read-out: Distribution of radioactivity, Lungs): 1.14 %ID/g
tissue uptake at 0.5 h ([1]; lungs, 30 min, read-out: Distribution of radioactivity, Lungs): 1.25 %ID/g
tissue uptake at 1 h ([1]; lungs, 60 min, read-out: Distribution of radioactivity, Lungs): 1.48 %ID/g
tissue uptake at 2 h ([1]; lungs, 2 h, read-out: Distribution of radioactivity, Lungs): 1.57 %ID/g
tissue uptake at 6 h ([1]; lungs, 6 h, read-out: Distribution of radioactivity, Lungs): 1.1 %ID/g
tissue uptake at 24 h ([1]; lungs, 1 d, read-out: Distribution of radioactivity, Lungs): 0.89 %ID/g
tissue uptake at 120 h ([1]; lungs, 5 d, read-out: Distribution of radioactivity, Lungs): 0.33 %ID/g
tissue uptake at 5 min ([1]; thyroid, 5 min, read-out: Distribution of radioactivity, Thyroid): 1.52 %ID/g
tissue uptake at 0.5 h ([1]; thyroid, 30 min, read-out: Distribution of radioactivity, Thyroid): 1.51 %ID/g
tissue uptake at 1 h ([1]; thyroid, 60 min, read-out: Distribution of radioactivity, Thyroid): 1.48 %ID/g
tissue uptake at 2 h ([1]; thyroid, 2 h, read-out: Distribution of radioactivity, Thyroid): 3.51 %ID/g
tissue uptake at 6 h ([1]; thyroid, 6 h, read-out: Distribution of radioactivity, Thyroid): 5.89 %ID/g
tissue uptake at 24 h ([1]; thyroid, 1 d, read-out: Distribution of radioactivity, Thyroid): 22.8 %ID/g
tissue uptake at 120 h ([1]; thyroid, 5 d, read-out: Distribution of radioactivity, Thyroid): 30.2 %ID/g
tissue uptake at 5 min ([1]; thyroid, after 5 minutes, read-out: Radioactivity accumulated in the thyroid tissue): 1.52 %ID/g
tissue uptake at 6 h ([1]; thyroid, after 6 hours, read-out: Radioactivity accumulated in the thyroid tissue): 5.84 %ID/g
Cumulative excretion in urine and feces [2, 4]: 71.6±8.3%
Cumulative fecal activity [2, 4]: 41.4±4.3%
Cumulative urine activity [2, 4]: 30.5±4.0%
Cumulative excretion in urine and feces ([2]; after two days, 2880 min): 43.2±1.8 % injected dose
Radioactive content of the feces [2, 5]: 22.4±1.1%
Radioactive content of the urine [2, 5]: 20.8±2.1%

CCCCCCCC[123Te]CCCCCCCC(=O)O [9-[^123m Te] telluraheptadecanoic acid]
Uptake and retention in the myocardium (in words) ([3]; Knapp et al 1981): rapid uptake and prolonged retention in the myocardium

O=C(O)CCCCCCCCCCCCCCc1ccc([125I])cc1 [15-(p-[^125 I]iodophenyl) pentadecanoic acid]
Washout from the myocardium (in words) ([3]; background): relatively rapid

O=C(O)CCCCCCCCCCCCCCc1ccc(I)cc1 [15-(p-iodophenyl) pentadecanoic acid]
Concentration of radioactive iodide in the blood (in words) ([3]; Machulla et al 1980): avoids the high concentration of radioactive iodide in the blood
